Data set [1] is described as follows: Cytotoxicity against Sprague-Dawley rat calvarial osteoblast cells at 10 pM to 1 uM after 48 hrs by MTT assay. It is filed as cell-based. (Tetrazolium dyes change colour on reduction, which living cells bring about.)
Data set [2] deals with Bone marrow cell. The experiment in a line: Antibone resorptive activity in mouse bone marrow cells assessed as inhibition of osteoclastogenesis at 100 nM after 7 days by TRAP assay in presence of MCSF and RANKL. It is filed as functional, cell-based.
The subject of data set [3] is Bone marrow cell. The experiment in a line: Antibone resorptive activity in mouse bone marrow cells assessed as inhibition of osteoclastogenesis at 100 pM after 7 days by TRAP assay in presence of MCSF and RANKL. Format: functional, cell-based.
In data set [4] the test system is Osteoclast. The data set is described as follows: Induction of apoptosis in mouse osteoclast cells assessed as nucleosomal DNA fragmentation at 100 nM after 48 hrs by Hoechst 33258 staining. Format: functional, cell-based.
The subject of data set [5] is Mus musculus. The experiment in a line: Antibone resorptive activity in BALB/c ovariectomized mouse bone marrow cells assessed as inhibition of osteoclastogenesis at 10 mg/kg by TRAP assay relative to control in presence of MCSF and RANKL. Also on record: scale not given: the % may be the effect or the level left. Format: functional.
Data set [6] concerns Mus musculus. The data set is described as follows: Induction of osteoclastogenesis in BALB/c ovariectomized mouse bone marrow cells at 10 mg/kg by TRAP assay relative to sham group in presence of MCSF and RANKL. It is filed as functional.
Data set [7] deals with Leishmania donovani. The data set is described as follows: Antileishmanial activity against Leishmania donovani MHOM/IN/80/Dd8 promastigotes infected in mouse J774A1 cells at 10 ug/mL after 96 hrs by MTT assay relative to control. Particulars: for inhibition at 10 µg/mL: MHOM/IN/80/Dd8, J774.A1, 96 h; for Activity: J774.A1. It is filed as functional.
Data set [8] has as its system Leishmania donovani. The experiment in a line: Antileishmanial activity against Leishmania donovani MHOM/IN/80/Dd8 promastigotes infected in mouse J774A1 cells at 6.25 ug/mL after 96 hrs by MTT assay relative to control. Format: functional. Particulars: MHOM/IN/80/Dd8, J774.A1, 96 h.
Data set [9] has as its system Leishmania donovani. The data set is described as follows: Antileishmanial activity against Leishmania donovani MHOM/IN/80/Dd8 amastigotes infected in mouse J774A1 cells at 10 ug/mL after 72 hrs by MTT assay relative to control. Format: functional. Particulars: for inhibition at 10 µg/mL: MHOM/IN/80/Dd8, J774.A1, 72 h; for Activity: J774.A1.
For data set [10], the system named is Leishmania donovani. The experiment in a line: Antileishmanial activity against Leishmania donovani MHOM/IN/80/Dd8 amastigotes infected in mouse J774A1 cells at 5 ug/mL after 72 hrs by MTT assay relative to control. It is filed as functional. As to conditions: MHOM/IN/80/Dd8, J774.A1, 72 h.
The subject of data set [11] is Leishmania donovani. The experiment in a line: Antileishmanial activity against Leishmania donovani MHOM/IN/80/Dd8 amastigotes infected in mouse J774A1 cells at 2 ug/mL after 72 hrs by MTT assay relative to control. It is filed as functional. As to conditions: MHOM/IN/80/Dd8, J774.A1, 72 h.
Data set [12] has as its system Leishmania donovani. The data set is described as follows: Antileishmanial activity against Leishmania donovani MHOM/IN/80/Dd8 amastigotes infected in mouse J774A1 cells at 1 ug/mL after 72 hrs by MTT assay relative to control. It is filed as functional. As to conditions: MHOM/IN/80/Dd8, J774.A1, 72 h.
Data set [13] deals with Leishmania donovani. The data set is described as follows: Antileishmanial activity against Leishmania donovani MHOM/IN/80/Dd8 amastigotes infected in mouse J774A1 cells after 72 hrs by MTT assay. Format: functional, organism-based. As to conditions: MHOM/IN/80/Dd8, J774.A1, 72 h.
A short description of data set [14]: Cytotoxicity against mouse J774A1 cells after 72 hrs by MTT assay. It is filed as cell-based, J774.A1.
Data set [15] has as its system Leishmania donovani. The data set is described as follows: Antileishmanial activity against Leishmania donovani MHOM/IN/80/Dd8 promastigotes infected in mouse J774A1 cells at 2000 ug/mL after 96 hrs by MTT assay relative to control. It is filed as functional, organism-based. Particulars: J774.A1.
In data set [16] the test system is Leishmania donovani. The experiment in a line: Antileishmanial activity against Leishmania donovani MHOM/IN/80/Dd8 promastigotes infected in mouse J774A1 cells at 1000 ug/mL after 96 hrs by MTT assay relative to control. It is filed as functional, organism-based. Particulars: J774.A1.
Data set [17] deals with Leishmania donovani. The experiment in a line: Antileishmanial activity against Leishmania donovani MHOM/IN/80/Dd8 promastigotes infected in mouse J774A1 cells at 500 ug/mL after 96 hrs by MTT assay relative to control. Format: functional, organism-based. As to conditions: J774.A1.
Data set [18] concerns Leishmania donovani. The experiment in a line: Antileishmanial activity against Leishmania donovani MHOM/IN/80/Dd8 amastigotes infected in mouse J774A1 cells at 200 ug/mL after 72 hrs by MTT assay relative to control. Format: functional, organism-based. As to conditions: J774.A1.
The test system of data set [19] is Leishmania donovani. The experiment in a line: Antileishmanial activity against Leishmania donovani MHOM/IN/80/Dd8 amastigotes infected in mouse J774A1 cells at 100 ug/mL after 72 hrs by MTT assay relative to control. It is filed as functional, organism-based. As to conditions: J774.A1.
The test system of data set [20] is Leishmania donovani. The data set is described as follows: Antileishmanial activity against Leishmania donovani MHOM/IN/80/Dd8 amastigotes infected in mouse J774A1 cells at 50 ug/mL after 72 hrs by MTT assay relative to control. Format: functional, organism-based. As to conditions: J774.A1.
For data set [21], the system named is Leishmania donovani. The experiment in a line: Antileishmanial activity against Leishmania donovani MHOM/IN/80/Dd8 amastigotes infected in mouse J774A1 cells at 25 ug/mL after 72 hrs by MTT assay relative to control. Particulars: J774.A1. Format: functional, organism-based.
Data set [22] deals with Osteoclast. The experiment in a line: Induction of apoptosis in mouse osteoclast cells assessed as nucleosomal DNA fragmentation at 10 pM after 48 hrs by Hoechst 33258 staining. It is filed as functional, cell-based.
Data set [23] has as its system Bone marrow cell. The data set is described as follows: Antibone resorptive activity in mouse bone marrow cells assessed as inhibition of osteoclastogenesis at 10 pM after 7 days by TRAP assay in presence of MCSF and RANKL. Format: functional, cell-based.

≈ marks a conversion by molar mass, not a printed value. Calls of active or inactive are those of the source. The calls are words filed in the database; no cut-off is given here.

Usually inhibition stands for the share of the control response that was lost under treatment. As usually defined, the IC50 is the concentration needed to halve the response being measured. One may read the CC50 as the concentration at which the toxic effect on the cells reaches its halfway point.

For `CCOP(=O)(OCC)C(O)(CCCCCn1c2c(c3ccccc31)CCSc1ccccc1-2)P(=O)(OCC)OCC`, the Activity result is “Not Active” in [1], 9% in the data set with Mus musculus [5] and 40% in the data set with Mus musculus [6]. In the data set on Bone marrow cell [2], the outcome was inactive. Moreover, the outcome with Bone marrow cell [3] and in the data set on Osteoclast [4] was Active. In addition, the inhibition at 10 µg/mL in the data set on Leishmania donovani [7] stood at 100%; in the data set on Leishmania donovani [9] it was 78.2%. The compound also came in with an inhibition at 6.25 µg/mL in the data set on Leishmania donovani [8] of 99.6%. Also, the inhibition at 5 µg/mL with Leishmania donovani [10] stood at 58.8%. The same compound showed an inhibition at 2 µg/mL in the data set on Leishmania donovani [11] of 16.8%. Moreover, in the data set with Leishmania donovani [12], the inhibition at 1 µg/mL was found to be 4.2%. The midpoint of inhibition in the data set with Leishmania donovani [13], the IC50, lay at 1.69 µg/mL (≈ 2.71 µM). This compound also had a CC50 at 72 h in data set [14] of 3.66 µg/mL (≈ 5.87 µM).
Take `O=P([O-])([O-])C(O)(CCCn1c2c(c3ccccc31)CCSc1ccccc1-2)P(=O)([O-])[O-].[Na+].[Na+].[Na+].[Na+]`: the outcome in data set [1] was Active. In addition, in the data set with Leishmania donovani [7], the result was inactive. In the data set with Leishmania donovani [9], this compound gave an inhibition at 10 µg/mL of 6.3%.
Taken in the same sequence, the figures for `O=P([O-])([O-])C(O)(Cn1c2c(c3ccccc31)CCSc1ccccc1-2)P(=O)([O-])[O-].[Na+].[Na+].[Na+].[Na+]` were “Active”, “inactive” and 33.5%.
For the compound `CCOP(=O)(OCC)C(O)(CCCCCn1c2c(c3ccccc31)CCCc1ccccc1-2)P(=O)(OCC)OCC`, the Activity entry in [1] is “Not Active”; in the data set on Leishmania donovani [9] it was “Toxic”. The same compound registered an inhibition at 10 µg/mL in the data set on Leishmania donovani [7] of 85.7%. In the data set with Leishmania donovani [8], this compound displayed an inhibition at 6.25 µg/mL of 26.1%.
Take `O=P([O-])([O-])C(O)(CCn1c2c(c3ccccc31)CCSc1ccccc1-2)P(=O)([O-])[O-].[Na+].[Na+].[Na+].[Na+]`: the result in data set [1] was Active. The inhibition at 10 µg/mL in the data set with Leishmania donovani [7] came to 23.5%. In the data set with Leishmania donovani [9], the result was inactive.
Take `O=P([O-])([O-])C(O)(CCCCn1c2c(c3ccccc31)CCSc1ccccc1-2)P(=O)([O-])[O-].[Na+].[Na+].[Na+].[Na+]`: in data set [1], the Activity result is “Not Active”. Also, the outcome in the data set on Bone marrow cell [2] was Active. Besides, the outcome with Leishmania donovani [7] was inactive. In the data set with Leishmania donovani [9], this compound came in with an inhibition at 10 µg/mL of 55.3%.
On to Sodium Stibogluconate, for which the inhibition in the data set on Leishmania donovani [15] worked out at 72.8%; in the data set on Leishmania donovani [16] it was 55.5%; with Leishmania donovani [17] it was 29.1%; in the data set on Leishmania donovani [18], 99.8%; with Leishmania donovani [19], 78.8%; in the data set with Leishmania donovani [20], 48.4%. In addition, the inhibition in the data set with Leishmania donovani [21] came out at 11.4%.
In the case of `NCCCC(O)(P(=O)(O)O)P(=O)(O)O`, the outcome in the data set with Bone marrow cell [2] was Active.
Take `CCOP(=O)(OCC)C(O)(CCCCn1c2c(c3ccccc31)CCSc1ccccc1-2)P(=O)(OCC)OCC`: the figures for the Activity entry (in data set [1]; with Mus musculus [5]; in the data set with Mus musculus [6]) were “Not Active”, 8.4% and 40%, respectively. Moreover, the outcome in the data set with Bone marrow cell [2] was inactive. The outcome in the data set with Bone marrow cell [3], with Osteoclast [22] and with Bone marrow cell [23] was Active. For the same compound, the inhibition at 10 µg/mL in the data set with Leishmania donovani [7] is 27.8%; in the data set with Leishmania donovani [9], 9.45%.
For `CCOP(=O)(OCC)C(O)(CCCCn1c2c(c3ccccc31)CCCc1ccccc1-2)P(=O)(OCC)OCC`, the Activity result in data set [1] is “Not Active”. For the same compound, the outcome with Bone marrow cell [2] was Active. The same compound returned an inhibition at 10 µg/mL in the data set on Leishmania donovani [7] of 99.8%. The compound also yielded an inhibition at 6.25 µg/mL with Leishmania donovani [8] of 86.4%. Moreover, 5 µg/mL produced 78.3% inhibition with Leishmania donovani [10]. For the same compound, in the data set on Leishmania donovani [11], the inhibition at 2 µg/mL was 80.6%. Further, the inhibition at 1 µg/mL in the data set with Leishmania donovani [12] is 3%. Also, the IC50 in the data set with Leishmania donovani [13] was found to be 24 µg/mL (≈ 40.6 µM). For the same compound, it took 5.81 µg/mL (≈ 9.82 µM) to reach half-maximal cytotoxicity in data set [14] (CC50 at 72 h).
Consider `CCOP(=O)(OCC)C(O)(CCCCCCn1c2c(c3ccccc31)CCSc1ccccc1-2)P(=O)(OCC)OCC`, for which the Activity result in data set [1] is listed as “Not Active”. The result in the data set on Bone marrow cell [2] was Active. Besides, the inhibition at 10 µg/mL was 100% with Leishmania donovani [7] and 85% in the data set with Leishmania donovani [9]. This compound returned an inhibition at 6.25 µg/mL in the data set on Leishmania donovani [8] of 90.1%. Besides, in the data set on Leishmania donovani [10], the inhibition at 5 µg/mL came to 67.2%. Moreover, the inhibition at 2 µg/mL in the data set with Leishmania donovani [11] worked out at 40%. Also, the inhibition at 1 µg/mL with Leishmania donovani [12] worked out at 25.5%. In the data set with Leishmania donovani [13], this compound came in with an IC50 of 2.56 µg/mL (≈ 4.01 µM). This compound returned a half-maximal cytotoxic concentration (CC50) at 72 h in [14] of 4.5 µg/mL (≈ 7.06 µM).
Consider `CCOP(=O)(OCC)C(O)(CCCCn1c2c(c3ccccc31)CCOc1ccccc1-2)P(=O)(OCC)OCC`, for which the outcome in data set [1] was Active. This compound also returned an inhibition at 10 µg/mL in the data set with Leishmania donovani [7] of 39.4%. Besides, in the data set with Leishmania donovani [9], the result was inactive.

For the origin of these results see ChEMBL document CHEMBL1144176, “Synthesis and biological evaluation of indolyl bisphosphonates as anti-bone resorptive and anti-leishmanial agents” (Bioorg Med Chem, 2008).
